Here are results for 17 molecules from patent US8435978B2, “Substituted sulfonamide compounds” (Gruenenthal GmbH, priority 2006, dated 2013).

The target in one assay is T1, human B1R receptor (Homo sapiens, UniProt P46663).
T1 construct: host or cells: CHO K1 cells (Chinese hamster ovary), stably transfected
T1 sequence (P46663 1-353): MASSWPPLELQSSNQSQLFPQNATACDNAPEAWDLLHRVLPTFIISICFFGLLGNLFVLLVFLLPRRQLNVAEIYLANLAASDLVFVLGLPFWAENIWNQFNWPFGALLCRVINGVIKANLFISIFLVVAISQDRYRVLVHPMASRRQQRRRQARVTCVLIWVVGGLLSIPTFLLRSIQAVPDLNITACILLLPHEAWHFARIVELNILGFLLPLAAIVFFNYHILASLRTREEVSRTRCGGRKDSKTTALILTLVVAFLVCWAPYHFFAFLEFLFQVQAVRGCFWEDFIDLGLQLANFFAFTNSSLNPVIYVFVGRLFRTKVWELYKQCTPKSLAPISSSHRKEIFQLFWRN
The assay is described as follows: Functional study on the bradykinin receptor 1 (B1R), FLIPR Ca2+ assay, hB1R cells. The format is cell-based. The following applies: agonist Lys-Des-Arg9-bradykinin 0.5 nM, % inhibition compared with the maximum achievable inhibition; for B1R Antagonism, human [10 μM] % Inhibition: test substance 10 μM, hB1R CHO K1 cells; for inhibition at 10 µM: CHO-K1, test substance 10 μM, read-out: B1R Antagonism, human [10 μM] % Inhibition. On the procedure: (§1) The agonistic or antagonistic action of substances can be quantified on the bradykinin receptor 1 (B1R) of the species human and rat with ectopically expressing cell lines (CHO K1 cells) and with the aid of a Ca^2+-sensitive dye (Fluo-4) using a fluorescent imaging plate reader (FLIPR). The indication in % activation is based on the Ca^2+ signal after addition of Lys-Des-Arg^9-bradykinin (0.5 nM) or Des-Arg^9-bradykinin (100 nM). Antagonists result in a suppression of the Ca^2+ influx following administration of the agonist. The % inhibition in comparison with the maximum achievable inhibition is indicated.
(§2) The agonistic or antagonistic action of substances can be determined on the bradykinin receptor 1 (B1R) of the species human and rat using the following assay. According to this assay, the Ca^2+ influx through the channel is quantified with the aid of a Ca^2+-sensitive dye (type Fluo-4, Molecular Probes Europe BV, Leiden, Netherlands) using a Fluorescent Imaging Plate Reader (FLIPR, Molecular Devices, Sunnyvale, USA).
(§3) Chinese hamster ovary cells (CHO K1 cells) which have been stably transfected with the human B1R gene (hB1R cells, Euroscreen s.a., Gosselies, Belgium) or with the B1R gene of the rat (rB1R cells, Axxam, Milan, Italy) are used. For functional studies, the cells are plated out on black 96-well plates having a clear base (BD Biosciences, Heidelberg, Germany) in a density of 20,000-25,000 cells/well. The cells are incubated overnight at 37° C. and with 5% CO2 in culture medium (hB1R cells: Nutrient Mixture Ham's F12, Gibco Invitrogen GmbH, Karlsruhe, Germany; rB1R cells: D-MEM/F12, Gibco Invitrogen GmbH, Karlsruhe, Germany), with 10 vol. % FBS (fetal bovine serum, Gibco Invitrogen GmbH, Karlsruhe, Germany). On the following day, the cells are loaded for 60 minutes at 37° C. with 2.13 μM Fluo-4 (Molecular Probes Europe BV, Leiden, Netherlands) in HBSS buffer (Hank's buffered saline solution, Gibco Invitrogen GmbH, Karlsruhe, Germany) […] (Sigma-Aldrich, Taufkirchen, Germany) and 10 mM HEPES (Sigma-Aldrich, Taufkirchen, Germany). The plates are then washed twice with HBSS buffer, and HBSS buffer additionally containing 0.1% BSA (bovine serum albumin; Sigma-Aldrich, Taufkirchen, Germany), 5.6 mM glucose and 0.05% gelatin (Merck KGaA, Darmstadt, Germany) is added to the plates. After incubation for a further 20 minutes at room temperature, the plates are inserted into the FLIPR for Ca^2+ measurement. The Ca^2+-dependent fluorescence is measured before and after the addition of substances (λex=488 nm, λem=540 nm). Quantification is carried out by measuring the highest fluorescence intensity (FC, fluorescence counts) over time.
(§4) The FLIPR protocol consists of 2 substance additions. Test substances (10 μM) are first pipetted onto the cells and the Ca^2+ influx is compared with the control (hB1R: Lys-Des-Arg^9-bradykinin 0.5 nM; rB1R: Des-Arg^9-bradykinin 100 nM). This gives the activation in %, based on the Ca^2+ signal after addition of Lys-Des-Arg^9-bradykinin (0.5 nM) or Des-Arg^9-bradykinin (100 nM).
(§5) After 10 minutes' incubation, 0.5 nM Lys-Des-Arg^9-bradykinin (hB1R) or 100 nM Des-Arg^9-bradykinin (rB1R) are applied, and the influx of Ca^2+ is likewise determined. Antagonists lead to suppression of the Ca^2+ influx. The % inhibition compared with the maximum achievable inhibition is calculated.

In another assay the target is T2, B1R receptor of the rat (Rattus norvegicus, UniProt P97583).
T2 construct: host or cells: CHO K1 cells (Chinese hamster ovary), stably transfected
T2 sequence (P97583 1-337): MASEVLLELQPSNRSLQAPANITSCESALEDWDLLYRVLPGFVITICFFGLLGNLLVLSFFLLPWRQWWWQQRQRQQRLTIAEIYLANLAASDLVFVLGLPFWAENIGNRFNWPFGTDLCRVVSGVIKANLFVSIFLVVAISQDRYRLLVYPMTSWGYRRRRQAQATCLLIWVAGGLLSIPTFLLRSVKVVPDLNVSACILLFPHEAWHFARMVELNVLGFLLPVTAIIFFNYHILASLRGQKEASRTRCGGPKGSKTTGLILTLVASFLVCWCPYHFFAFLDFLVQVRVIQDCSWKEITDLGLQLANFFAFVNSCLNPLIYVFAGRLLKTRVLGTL
The assay is described as follows: Functional study on the bradykinin receptor 1 (B1R), FLIPR Ca2+ assay, rB1R cells. The format is cell-based. The conditions noted are these: agonist Des-Arg9-bradykinin 100 nM, % inhibition compared with the maximum achievable inhibition; for B1R Antagonism, rat [10 μM] % Inhibition: test substance 10 μM, rB1R CHO K1 cells; for inhibition at 10 µM: CHO-K1, test substance 10 μM, read-out: B1R Antagonism, rat [10 μM] % Inhibition. The protocol: as §1, §2, §3, §4, §5

“1-(4-(3-chloro-5-(trifluoromethyl)pyridin-2-yl)piperazin-1-yl)-2-((1-(2,6-dichlorophenylsulfonyl)piperidin-2-yl)methoxy)ethanone [Example 485]”: the “B1R Antagonism, human [10 μM] % Inhibition” value on human B1R receptor is recorded as 65.25%. For the same molecule, the “B1R Antagonism, rat [10 μM] % Inhibition” value at B1R receptor of the rat is listed as 103.41%.

In the case of “2-((1-(2,6-dichlorophenylsulfonyl)piperidin-2-yl)methoxy)-N-(2-(piperidin-1-yl)ethyl)acetamide [Example 440]”, the “B1R Antagonism, human [10 μM] % Inhibition” value on human B1R receptor is given as 98.07%. Also, at B1R receptor of the rat, the “B1R Antagonism, rat [10 μM] % Inhibition” value stood at 95.62%.

As for “2-((1-(2,6-dichlorophenylsulfonyl)piperidin-2-yl)methoxy)-N-(4-(dimethylamino)butyl)acetamide [Example 441]”, at human B1R receptor, the “B1R Antagonism, human [10 μM] % Inhibition” value turned out to be 103.96%. Further, the “B1R Antagonism, rat [10 μM] % Inhibition” value at B1R receptor of the rat is recorded as 98.36%.

Broadly, the inhibition is the relative decrease from the control value, in per cent. On to `COc1cc(C)c(S(=O)(=O)N2CCCC2COCC(=O)NCc2ccc(CN3CCCCC3)cc2)c(C)c1` (centres unmarked) [Example 1, 2-[1-(4-methoxy-2,6-dimethyl-phenylsulfonyl)-pyrrolidin-2-ylmethoxy]-N-(4-piperidin-1-ylmethyl-benzyl)-acetamide], for which the inhibition at 10 µM was 105% on human B1R receptor and 107% at B1R receptor of the rat.

For `COc1cc(C)c(S(=O)(=O)N2CCCCC2COCC(=O)NCc2ccc(CN3CCCCC3)cc2)c(C)c1` (centres unmarked) [Example 2, 2-[1-(4-methoxy-2,6-dimethyl-phenylsulfonyl)-piperidin-2-ylmethoxy]-N-(4-piperidin-1-ylmethyl-benzyl)-acetamide], the inhibition at 10 µM at human B1R receptor was found to be 104%; on B1R receptor of the rat, 87.4%.

As to `COc1cc(C)c(S(=O)(=O)N2CCCCC2COCC(=O)NCc2ccc(N3CCN(C)CC3)cc2)c(C)c1` (centres unmarked) [Example 3, 2-[1-(4-methoxy-2,6-dimethyl-phenylsulfonyl)-piperidin-2-ylmethoxy]-N-[4-(4-methyl-piperazin-1-yl)-benzyl]-acetamide], the “B1R Antagonism, human [10 μM] % Inhibition” value on human B1R receptor is given as 103.84%. Further, the “B1R Antagonism, rat [10 μM] % Inhibition” value on B1R receptor of the rat is 108.97%.

On to `O=C(COCC1CCCCN1S(=O)(=O)c1c(Cl)cc(Cl)cc1Cl)NCc1ccc(CN2CCCCC2)cc1` (centres unmarked) [Example 4, N-(4-piperidin-1-ylmethyl-benzyl)-2-[1-(2,4,6-trichloro-phenylsulfonyl)-piperidin-2-ylmethoxy]-acetamide], for which the inhibition at 10 µM worked out at 104% on human B1R receptor and 106% on B1R receptor of the rat.

On to `Cc1cc(C)c(S(=O)(=O)N2Cc3ccccc3CC2COCC(=O)N2CCN(C3CCN(C)CC3)CC2)c(C)c1` (centres unmarked) [Example 5, 1-[4-(1-methyl-piperidin-4-yl)-piperazin-1-yl]-2-[2-(2,4,6-trimethyl-phenylsulfonyl)-1,2,3,4-tetrahydro-isoquinolin-3-ylmethoxy]-ethanone], for which the inhibition at 10 µM on human B1R receptor and at B1R receptor of the rat was 103% each time.

Consider `O=C(COCC1CCCCN1S(=O)(=O)c1cccc2ccccc12)N1CCCN(Cc2ccccc2)CC1` (centres unmarked) [Example 6, 1-(4-benzyl-[1,4]diazepan-1-yl)-2-[1-(naphthyl-1-sulfonyl)-piperidin-2-ylmethoxy]-ethanone], for which, at human B1R receptor, the “B1R Antagonism, human [10 μM] % Inhibition” value is given as 102.21%. At B1R receptor of the rat, the “B1R Antagonism, rat [10 μM] % Inhibition” value was 94.88%.

For `COc1cc(C)c(S(=O)(=O)N2CCCCC2COCC(=O)NCc2ccc(CN3CCN(C)CC3)cc2)c(C)c1` (centres unmarked) [Example 7, 2-[1-(4-methoxy-2,6-dimethyl-phenylsulfonyl)-piperidin-2-ylmethoxy]-N-[4-(4-methyl-piperazin-1-ylmethyl)-benzyl]-acetamide], the inhibition at 10 µM at human B1R receptor is 102%; on B1R receptor of the rat it was 99.3%.

Take `O=C(COCC1Cc2ccccc2CN1S(=O)(=O)c1ccc(Cl)cc1Cl)N1CCC(N2CCCCC2)CC1` (centres unmarked) [Example 9, 1-(1,4′-bipiperidin-1′-yl)-2-((2-(2,4-dichlorophenylsulfonyl)-1,2,3,4-tetrahydro-isoquinolin-3-yl)methoxy)ethanone]: the inhibition at 10 µM on human B1R receptor came to 102%; on B1R receptor of the rat, 85.3%.

Regarding `O=C(COCC1CCCN1S(=O)(=O)c1c(Cl)cc(Cl)cc1Cl)NCc1ccc(CN2CCCCC2)cc1` (centres unmarked) [Example 10, N-(4-piperidin-1-ylmethyl-benzyl)-2-[1-(2,4,6-trichloro-phenylsulfonyl)-pyrrolidin-2-ylmethoxy]-acetamide], the results for the inhibition at 10 µM at human B1R receptor and on B1R receptor of the rat were 100% and 91.8%, respectively.

`COc1ccc(S(=O)(=O)N2CCCCC2CCOCC(=O)N2CCN(CCc3ccccc3)CC2)cc1` (centres unmarked) [Example 91, 2-(2-(1-(4-methoxyphenylsulfonyl)piperidin-2-yl)ethoxy)-1-(4-phenethylpiperazin-1-yl)ethanone]: the inhibition at 10 µM on human B1R receptor is 48.8%.

On to `CN(C(=O)COCC1CCCCN1S(=O)(=O)c1ccccc1C(F)(F)F)[C@H]1CCN(Cc2ccccc2)C1` (stereo partly drawn) [Example 218, N—((S)-1-benzylpyrrolidin-3-yl)-N-methyl-2-((1-(2-(trifluoromethyl)phenylsulfonyl)piperidin-2-yl)methoxy)acetamide], for which the inhibition at 10 µM at human B1R receptor was determined as 100%.

With `CN1CCN(C2CCN(C(=O)COCC3CCCCN3S(=O)(=O)c3csc4ccccc34)CC2)CC1` (centres unmarked) [Example 572, 2-((1-(benzo[b]thiophen-3-ylsulfonyl)piperidin-2-yl)methoxy)-1-(4-(4-methylpiperazin-1-yl)piperidin-1-yl)ethanone], the inhibition at 10 µM at B1R receptor of the rat stood at 99%.

As to `CN1CCC(CN2CCN(C(=O)COCC3CCCCN3S(=O)(=O)c3csc4ccccc34)CC2)CC1` (centres unmarked) [Example 573, 2-((1-(benzo[b]thiophen-3-ylsulfonyl)piperidin-2-yl)methoxy)-1-(4-((1-methylpiperidin-4-yl)methyl)piperazin-1-yl)ethanone], on B1R receptor of the rat, the inhibition at 10 µM stood at 101%.

Take `CN(C(=O)COCC1CCCCN1S(=O)(=O)c1c(Cl)cc(C(F)(F)F)cc1Cl)[C@H]1CCN(Cc2ccccc2)C1` (stereo partly drawn) [Example 574, N—((S)-1-benzylpyrrolidin-3-yl)-2-((1-(2,6-dichloro-4-(trifluoromethyl)phenylsulfonyl)piperidin-2-yl)methoxy)-N-methylacetamide]: the inhibition at 10 µM on human B1R receptor amounted to 90%.
